# Reference: EP0687258B1, “SUBSTITUTED IMINOACETONITRILES WITH MYOCARDIAL PROTECTIVE EFFECT” (HOECHST AKTIENGESELLSCHAFT, priority 1993, dated 1994)
# Tested on: isoliert perfundierten Rattenherzens
# Assay: Isolated perfused rat heart (Langendorff), anoxia/reoxygenation, release of lactate dehydrogenase into the perfusate
# Set-up: species or system Wistarratten
# Details: for Freisetzung von Laktatdehydrogenase (großer initialer Enzymverlust) während der Reoxygenationsphase: closed circles, n = 4 hearts; for Enzymverlust nach anschließendem Auswaschen der Substanz: open circles
# Description: Die pharmakologische Wirkung der erfindungsgemäßen Verbindungen der allgemeinen Formel I sowie des N-Morpholino-iminoacetonitrils wurden am Modell des isoliert perfundierten Rattenherzens untersucht.
# Dazu wurden Herzen von 200 - 250 g schweren Wistarratten in einer temperaturkontrollierten Kammer (37°C) an ein Langendorff-Perfusionssystem gehängt. Die Kammer war während normoxischer Perfusionen mit Luft, während anoxischer mit 95 % N2 plus 5 % CO2 gefüllt. […] Für eine initiale Stabilisierungsperiode von 30 min wurden die Herzen mit einem oxygenierten salinen Medium perfundiert (Zusammensetzung in mM: 140.0 NaCl, 24.0 NaHCO3, 2.7 KCl, 0.4 NaH2PO4, 1.0 MgCl2, 1.8 CaCl2, 5.0 Glucose, äquilibriert mit 95 % O2 und 5 % CO2, pH 7.4). Für anoxische Perfusionen wurde diese initiale normoxische Stabilisierungsperiode gefolgt von 60 min Perfusion, mit einem Fluß von 5 ml/min von anoxoischem Medium (Zusammensetzung wie zuvor, aber ohne Glucose und äquilibriert mit 95 % N2 und 5 % CO2, pH 7.4). Die anoxisch perfundierten Herzen wurden nachfolgend durch Zurückschalten auf die initialen normoxischen Perfusionsbedingungen reoxygeniert.
# In Versuchen mit den Testsubstanzen wurden diese dem anoxischen Perfusat während der letzten 15 min zugefügt. Die ersten 60 min der Reoxygenationsphase wurden ebenfalls in Gegenwart der Testsubstanzen durchgeführt. Danach wurde ohne diese Substanzen die normoxische Perfusion für weitere 45 min fortgesetzt.
# Die Herzschädigung wurde charakterisiert durch die Freisetzung des zytosolischen Enzyms Laktatdehydrogenase (LDH) in das Perfusat. Während der Herzperfusion wurden 1-minütige Sammelproben des Effluats gesammelt. Die Aktivität von LDH wurde auch in Homogenaten ganzer Rattenherzen gemessen (präpariert in 100 mM Phosphatpuffer, pH 7.4, mit 1 % Triton X-100). […] Der Enzymverlust wurde in Prozenten der initialen Gesamtgewebsaktivitäten angegeben.
Wirksamkeit im Vergleich zu BDM (relative to BDM (10 mM vs 20 mM)),"Freisetzung von Laktatdehydrogenase (großer initialer Enzymverlust) während der Reoxygenationsphase (reoxygenation after 60 min anoxia in presence of 10 mM test substance, Abbildung 1 B)",reoxygenationsbedingte Myokardschädigung (summary of the results shown),SMILES,"Freisetzung von Laktatdehydrogenase (großer initialer Enzymverlust) während der Reoxygenationsphase (reoxygenation after 60 min anoxia in presence of 20 mM test substance, Abbildung 1 C)","Enzymverlust nach anschließendem Auswaschen der Substanz (washout after reoxygenation in presence of 20 mM test substance, Abbildung 1 C)","Enzymverlust nach anschließendem Auswaschen der Substanz (washout after reoxygenation in presence of 10 mM test substance, Abbildung 1 B)"
–,–,–,"CC(=O)C(C)=NO [Butandionmonoxim, reference compound]",weitgehend unterdrückt,geringen initialen Steigerung des Enzymverlustes,–
etwa doppelt so hoch wie die von BDM,weitgehend unterdrückt,deutlich reduziert,N#CC=NN1CCOCC1 [N-Morpholino-iminoacetonitril],–,–,keiner weiteren Steigerung des Enzymverlusts
